Results published in paper PMC8595862 (Environmental toxicology and pharmacology, 2021).
Counter-ions that a name gives are not always drawn.

Tests used:
[1] = test system: human hepatic microsomal sulfatase; test: Human hepatic microsomal sulfatase assay; format: in vitro ADME; settings: relative to DHEA sulfate
[2] = human cohort exposed to PCBs; calculated; ref Quinete et al., 2017; cited from earlier work
[3] = rats, 0.6 mg/kg intravenous injection; ref Grimm et al., 2015a; cited from earlier work

| SMILES | Catalytic efficiency compared with DHEA sulfate [1] | Plasma half-life [2] [years] | other results |
| --- | --- | --- | --- |
| O=S(=O)(O)Oc1cc(Cl)c(-c2cc(Cl)ccc2Cl)cc1Cl [4-PCB 52 Sulfate, 2,2’,5,5’-tetrachloro-4-biphenylsulfate] | over 20 times | – | – |
| Oc1ccc(-c2ccc(Cl)cc2Cl)cc1Cl [4’-OH-PCB 25, 2,3’,4-trichloro-4’-hydroxybiphenyl] | – | 6.46 | – |
| Clc1ccc(-c2ccc(Cl)cc2Cl)cc1 [PCB 28, 2,4,4’-trichlorobiphenyl] | – | 4.32 | – |
| O=S(=O)(O)Oc1ccc(-c2ccc(Cl)c(Cl)c2)cc1 [4’-PCB 12 Sulfate, 3,4-dichloro-4’-biphenylsulfate] | the same as DHEA sulfate | – | – |
| O=S(=O)(O)Oc1ccc(-c2cccc(Cl)c2)cc1Cl [4-PCB 11 Sulfate, 3,3’-dichloro-4-biphenylsulfate] | – | – | Tissue uptake, metabolism and urinary excretion [3]: taken up by tissues and further metabolized, with only a small percentage excreted in the urine |
